Laboratory results: paper PMC6696095, “Purification and Characterization of Ornithine Decarboxylase from Aspergillus terreus; Kinetics of Inhibition by Various Inhibitors” (Molecules, 2019)
“And” between values parts separate entries of the source, which are not always exact repeats. Equal entries are not always repeated. Where two headings read alike, the source gives them in different places. Values belong to the compound of their own block, whether it stands above or below them.

Experiments:
[1] = molecular target: T1, A. terreus ODC (Aspergillus terreus, UniProt A0ACN5CWH9); format: biochemical; details: Nessler's, diacetylmonoxime and TNBS assays
Description: (§1) The specificity of purified A. terreus ODC towards various amino acids as substrates has been evaluated based on the putative enzymatic byproducts such as ammonia, citrulline and putrescine (see Materials and Methods). […] The putative deaminating, deiminating and decarboxylating activity of ODC for each substrate was assessed (Table 3).
(§2) The putative enzymatic byproducts such as ammonia, citrulline and putrescine were determined by Nessler’s reagent, diacetylmonoxime reagent and TNBS [42], respectively, under standard conditions. The kinetic parameters of A. terreus ODC; Michalis-Menten constant (Km), maximum velocity (Vmax), and turnover number (kcat) and catalytic efficiency towards the most hydrolysable amino acids were calculated.

[2] = molecular target: T1, A. terreus ODC; assay: Effect of inhibitors on activity of purified A. terreus ODC (residual activity, standard TNBS assay); format: biochemical; details: for IC50: 2 h preincubation; for activity at 5 µg/mL / activity at 40 µg/mL / activity at 200 µg/mL / activity at 400 µg/mL: read-out: Relative Activity (%); for Relative Activity (%): enzyme preincubated 2 h, then L-ornithine, residual ODC activity
Description: The amino acid identity of the active sites implicated in the catalysis of A. terreus ODC has been scrutinized by the response to suicide inhibitors, namely propargylgycine (PPG), guanidine thiocyanate, hydroxylamine, iodoacetamide, DTNB, MBTH and curcumin. […] Consistently, curcumin has been extensively reported a strong inhibitor to the activity of tumor cells ODC, modulating the cellular polyamine metabolism. Elevated polyamine synthesis was recognized as profound compounds for survival and rapid proliferation of tumor cells, thus, targeting the ODC, rate limiting enzyme of polyamine synthesis, has been considered as powerful chemopreventive therapy for tumor cells. […] The enzyme irreversible inactivation by carbonyl reagents such as PPG, ensures the PLP dependence of these enzymes.
(§3) The activity of ODC was determined based on the amount of released putrescine using 2,4,6-tri-nitrobenzene sulfonic acid (TNBS) reagent. […] The reaction was stopped by 10% TCA then neutralized by adding adequate amount of 2N NaOH. 1-Pentanol (2 mL) was added was added to the reaction mixture which was subsequently vortexed for 1 min and centrifuged at 5000 rpm for 5 min. The upper layer was transferred into a new tube, combined with an equal volume of 0.1 M sodium borate (pH 8.0). After vigorously mixing, 500 µL of TNBS (10 mM) reagent was added, subjected to 1 min vortex before adding 2 mL DMSO, and centrifuging at 6000 rpm for 5 min and left to separate into two layers. The upper layer containing TNP-putrescine-TNP was collected by micropipette and the absorbance at λ = 420 nm will reveal putrescine concentration based on a parallel measurement of authentic putrescine at the same conditions. The enzyme protein concentration was measured by Folinʹs reagent, comparing to a known concentration of bovine serum albumin.
Active site prediction using amino acids analogues has been recognized as one of the mechanisms for interrogation of enzymatic identity. The influence of various inhibitors namely 5,5′-dithiobis-2-nitrobenzoic acid, 3-methyl-2-benzothiazolinone-hydrazone, guanidine thiocyanate, iodoacetamide, hydroxylamine, propargylglycine and curcumin on the activity of purified ODC was estimated. The enzyme was incubated with different inhibitor concentrations (5, 40, 200, 400 µg/mL) for 2 h at 30 °C, then amended with the substrate, and the residual activity of the enzyme were determined by the standard assay. The inhibitory kinetic parameters were measured according to El-Sayed et al.

[3] = tested on: N=C(N)NCCC[C@H](N)C(=O)O; assay: purified protein, by the assay type; details: other: substrate of A. terreus ODC
Description: (§4) The putative enzymatic byproducts such as ammonia, citrulline and putrescine were determined by Nessler’s reagent [66], diacetylmonoxime reagent [36] and TNBS [42], respectively, under standard conditions. The kinetic parameters of A. terreus ODC; Michalis-Menten constant (Km), maximum velocity (Vmax), and turnover number (kcat) and catalytic efficiency towards the most hydrolysable amino acids were calculated.

[4] = tested on: NCCCC[C@H](N)C(=O)O; assay: purified protein, by the assay type; details: other: substrate of A. terreus ODC
Description: as §4

[5] = molecular target: T1, A. terreus ODC; assay: Substrate specificity of purified ODC, Nessler's assay (ammonia); format: biochemical; details: for Nessler's Assay Activity: amino acid as substrate; for Nessler's Assay Relative Activity: normalized to L-ornithine as standard substrate
Description: as §1, §2

[6] = molecular target: T1, A. terreus ODC; assay: Substrate specificity of purified ODC, diacetyl monoxime assay (citrulline / imino groups); format: biochemical; details: for Diacetyl Monoxime Assay Activity: amino acid as substrate
Description: as §1, §2

[7] = molecular target: T1, A. terreus ODC; assay: Substrate specificity of purified ODC, TNBS assay (putrescine); format: biochemical; details: released putrescine; for TNBS Assay Activity: amino acid as substrate; for TNBS Assay Relative Activity: normalized to L-ornithine
Description: as §1, §3, §2

[8] = molecular target: T1, A. terreus ODC; assay: Kinetic parameters of A. terreus ODC for substrates; details: substrate of A. terreus ODC
Description: as §1, §2

Compound: CC(=O)N[C@@H]1[C@@H](O)[C@H](O)[C@@H](CO)O[C@H]1O [N-acetylglucosamine]
affinity of purified ODC towards the amino acid as substrate [1]: no detectable affinity

IC50 ([2]; IC50, purified A. terreus ODC): ~109 nM and 109 nM
activity at 5 µg/mL [2]: 11%
activity at 40 µg/mL [2]: 0%
activity at 200 µg/mL [2]: 0%
activity at 400 µg/mL [2]: 0%
Compound: COc1cc(/C=C/C(=O)CC(=O)/C=C/c2ccc(O)c(OC)c2)ccc1O [Curcumin, diferuloylmethane]

Compound: CSCC[C@H](N)C(=O)O [L-methionine]
affinity of purified ODC towards the amino acid as substrate [1]: no detectable affinity

Compound: CC(C)[C@H](N)C(=O)O [L-valine]
affinity of purified ODC towards the amino acid as substrate [1]: no detectable affinity

Compound: NC(=O)CI [Iodoacetamide, iodoacetamide]
Relative Activity (%) ([2]; inhibitor 5 µg/mL): 37%
Relative Activity (%) ([2]; inhibitor 40 µg/mL): 19%
Relative Activity (%) ([2]; inhibitor 200 µg/mL): 10%
Relative Activity (%) ([2]; inhibitor 400 µg/mL): 0%

Compound: C[C@H](N)C(=O)O [L-alanine]
affinity of purified ODC towards the amino acid as substrate [1]: no detectable affinity

Compound: NCC(=O)O [L-glycine]
affinity of purified ODC towards the amino acid as substrate [1]: no detectable affinity

Relative Activity (%) ([2]; inhibitor 5 µg/mL): 8%
Relative Activity (%) ([2]; inhibitor 40 µg/mL): 0.1%
Relative Activity (%) ([2]; inhibitor 200 µg/mL): 0%
Relative Activity (%) ([2]; inhibitor 400 µg/mL): 0%
IC50 ([2]; purified A. terreus ODC): 0.02 µg/mL
Compound: NCCCC(N)(C(=O)O)C(F)F (stereo not drawn) [DFMO, Difluoromethylornithine]

Compound: A. terreus ODC (Aspergillus terreus NIH2624)
Km [3]: 1400 µM
kcat/Km [3]: 0.0246 M⁻¹ s⁻¹
Km [4]: 1340 µM
kcat/Km [4]: 0.0283 M⁻¹ s⁻¹

Compound: NCCCC[C@H](N)C(=O)O [L-Lysine]
Nessler's Assay Activity [5]: 0 µmol/mg/min
Nessler's Assay Relative Activity [5]: 0%
Diacetyl Monoxime Assay Activity ([6]; deiminating activity): 0.0045 µmol/mg/min
Diacetyl Monoxime Assay Relative Activity ([6]; deiminating activity, normalized to L-ornithine): 128%
TNBS Assay Activity [7]: 0.44 µmol/mg/min
TNBS Assay Relative Activity [7]: 20.9%

Compound: N[C@@H](Cc1c[nH]c2ccccc12)C(=O)O [L-tryptophan]
affinity of purified ODC towards the amino acid as substrate [1]: no detectable affinity

Compound: N=C(N)NCCC[C@H](N)C(=O)O [L-Arginine]
Nessler's Assay Activity [5]: 0.35 µmol/mg/min
Nessler's Assay Relative Activity [5]: 19%
Diacetyl Monoxime Assay Relative Activity [6]: 194%
Diacetyl Monoxime Assay Activity ([6]; deiminating activity): 0.0068 µmol/mg/min
TNBS Assay Activity [7]: 0.34 µmol/mg/min
TNBS Assay Relative Activity [7]: 16.2%

Relative Activity (%) ([2]; inhibitor 5 µg/mL): 45%
Relative Activity (%) ([2]; inhibitor 40 µg/mL): 13%
Relative Activity (%) ([2]; inhibitor 200 µg/mL): 0%
Relative Activity (%) ([2]; inhibitor 400 µg/mL): 0%
Compound: NO [Hydroxylamine, hydroxylamine]

Compound: NC(=O)CC[C@H](N)C(=O)O [L-glutamine]
affinity of purified ODC towards the amino acid as substrate [1]: no detectable affinity

Relative Activity (%) ([2]; inhibitor 5 µg/mL): 39%
Relative Activity (%) ([2]; inhibitor 40 µg/mL): 27%
Relative Activity (%) ([2]; inhibitor 200 µg/mL): 14%
Relative Activity (%) ([2]; inhibitor 400 µg/mL): 5.8%
Compound: O=C(O)c1cc(SSc2ccc([N+](=O)[O-])c(C(=O)O)c2)ccc1[N+](=O)[O-] [5-5′-Dithiobis-(2-nitro-benzoic acid), 5,5′-dithiobis-2-nitrobenzoic acid]

Relative Activity (%) ([2]; inhibitor 5 µg/mL): 89%
Relative Activity (%) ([2]; inhibitor 40 µg/mL): 30%
Relative Activity (%) ([2]; inhibitor 200 µg/mL): 17%
Relative Activity (%) ([2]; inhibitor 400 µg/mL): 6%
IC50 ([2]; purified A. terreus ODC): 20.9 µg/mL
Compound: C#CCC(N)C(=O)O (stereo not drawn) [Propargylgycine, propargylglycine]

Compound: N[C@@H](CS)C(=O)O [L-cysteine]
affinity of purified ODC towards the amino acid as substrate [1]: no detectable affinity

Compound: NC(=O)C[C@H](N)C(=O)O [L-asparagine]
affinity of purified ODC towards the amino acid as substrate [1]: no detectable affinity

Compound: N[C@@H](Cc1ccc(O)cc1)C(=O)O [L-tyrosine]
affinity of purified ODC towards the amino acid as substrate [1]: no detectable affinity

activity at 5 µg/mL [2]: 41%
activity at 40 µg/mL [2]: 29%
activity at 200 µg/mL [2]: 12%
activity at 400 µg/mL [2]: 0%
Compound: Cn1c(=NN)sc2ccccc21 [3-Methyl-2-benzo-thiazolinone hydrazone, 3-methyl-2-benzothiazolinone-hydrazone]

Compound: NCCC[C@H](N)C(=O)O [L-Ornithine]
Nessler's Assay Activity [5]: 1.87 µmol/mg/min
Diacetyl Monoxime Assay Activity ([6]; deiminating activity): 0.0035 µmol/mg/min
TNBS Assay Activity [7]: 2.1 µmol/mg/min
Km [8]: 950 µM
Vmax [8]: 4.8 µmol/mg/min
Km ([8]; listed as L-ornithine): 900 µM

Compound: N#CS.N=C(N)N [Guanidine thiocyanate, guanidine thiocyanate]
Relative Activity (%) ([2]; inhibitor 5 µg/mL): 90%
Relative Activity (%) ([2]; inhibitor 40 µg/mL): 60%
Relative Activity (%) ([2]; inhibitor 200 µg/mL): 30%
